Values quoted from earlier work as cited in US20190365934A1, “METHODS FOR IN VIVO MONITORING OF DO[…] AND EFFICACY OF TREATMENT AGENTS THEREFOR” (LIKEMINDS, INC., priority 2017, published 2019).

Details: background statement on FDA approved SPECT tracer

For `COC(=O)[C@H]1[C@@H](c2ccc([123I])cc2)C[C@@H]2CC[C@H]1N2CCCF` [[^123I]-FP-CIT, [^123I]-2β-carbomethoxy-3β-(4-iodophenyl)-N-(3-fluoropropyl) nortropane], the stable post-injection is given as 4 h.
